Test results published in ChEMBL document CHEMBL1201862, “PubChem BioAssay data set” (2004).
Activity calls are given as the source filed them.

Experiments:
[1] = target: T1, Sentrin-specific protease 1 (Homo sapiens, UniProt Q9P0U3); test: potency of human SENP1 inhibitors, dose response, biochemical, kinetic FRET (AID 651697); type: functional; conditions: read-out: IC50_Mean
T1 sequence (Q9P0U3 whole entry): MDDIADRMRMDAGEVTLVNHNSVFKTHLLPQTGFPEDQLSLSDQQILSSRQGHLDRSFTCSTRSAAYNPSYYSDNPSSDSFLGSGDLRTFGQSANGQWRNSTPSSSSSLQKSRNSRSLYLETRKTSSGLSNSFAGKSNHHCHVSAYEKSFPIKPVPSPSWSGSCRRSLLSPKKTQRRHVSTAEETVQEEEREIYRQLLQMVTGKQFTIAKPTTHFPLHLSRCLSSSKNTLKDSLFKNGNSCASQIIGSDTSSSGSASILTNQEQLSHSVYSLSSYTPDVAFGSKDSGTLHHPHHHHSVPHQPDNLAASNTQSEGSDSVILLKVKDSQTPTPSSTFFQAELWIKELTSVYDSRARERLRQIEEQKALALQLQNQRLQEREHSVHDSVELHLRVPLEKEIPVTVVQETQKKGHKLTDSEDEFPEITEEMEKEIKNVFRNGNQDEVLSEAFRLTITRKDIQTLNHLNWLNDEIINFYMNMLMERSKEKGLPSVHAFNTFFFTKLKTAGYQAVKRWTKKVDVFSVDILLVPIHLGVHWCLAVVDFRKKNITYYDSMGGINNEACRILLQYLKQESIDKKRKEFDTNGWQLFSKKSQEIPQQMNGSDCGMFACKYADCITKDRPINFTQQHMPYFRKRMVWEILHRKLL

[2] = target: T1, Sentrin-specific protease 1; test: Dose response confirmation of small molecule inhibitors of the catalytic domain of the SUMO protease, SENP1 in a FRET assay.; type: functional; conditions: read-out: IC50_Mean
[3] = microbe, parasite or virus in culture; type: functional; conditions: Mycobacterium tuberculosis
Beta-galactosidase = Beta-galactosidase (Escherichia coli, UniProt Q8VNN2); test: Dose response counterscreen for EBI2 assay utilizing the enzyme, b-galactosidase.; type: functional
Beta-galactosidase, sequence (Q8VNN2 whole entry): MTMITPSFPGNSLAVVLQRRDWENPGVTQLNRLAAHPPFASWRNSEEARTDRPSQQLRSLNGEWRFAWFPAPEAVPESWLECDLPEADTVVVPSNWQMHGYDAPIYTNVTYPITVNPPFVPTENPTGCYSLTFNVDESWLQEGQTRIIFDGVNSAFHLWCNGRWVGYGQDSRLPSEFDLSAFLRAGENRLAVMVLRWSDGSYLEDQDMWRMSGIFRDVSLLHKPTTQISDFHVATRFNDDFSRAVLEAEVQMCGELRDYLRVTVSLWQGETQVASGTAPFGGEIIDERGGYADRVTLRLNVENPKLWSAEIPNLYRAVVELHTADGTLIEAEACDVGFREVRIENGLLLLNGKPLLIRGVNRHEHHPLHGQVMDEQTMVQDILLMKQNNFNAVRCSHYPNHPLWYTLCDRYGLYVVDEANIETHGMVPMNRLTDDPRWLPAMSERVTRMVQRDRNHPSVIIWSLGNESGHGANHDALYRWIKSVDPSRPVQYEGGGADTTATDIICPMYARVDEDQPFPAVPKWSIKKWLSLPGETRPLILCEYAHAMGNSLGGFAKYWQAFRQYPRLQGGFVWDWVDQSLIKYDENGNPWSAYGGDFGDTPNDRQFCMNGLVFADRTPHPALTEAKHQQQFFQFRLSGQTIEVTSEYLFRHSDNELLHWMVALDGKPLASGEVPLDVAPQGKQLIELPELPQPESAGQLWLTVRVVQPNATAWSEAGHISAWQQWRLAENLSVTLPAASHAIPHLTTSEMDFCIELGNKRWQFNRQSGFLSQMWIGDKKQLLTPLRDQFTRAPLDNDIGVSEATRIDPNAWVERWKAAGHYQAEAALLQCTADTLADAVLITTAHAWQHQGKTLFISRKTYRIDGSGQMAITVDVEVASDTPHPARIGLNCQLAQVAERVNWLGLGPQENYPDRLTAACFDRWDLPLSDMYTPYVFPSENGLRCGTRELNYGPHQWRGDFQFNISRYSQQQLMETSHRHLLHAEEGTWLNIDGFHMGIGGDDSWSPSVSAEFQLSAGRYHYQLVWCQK

[4] = HepG2 cell cytotoxicity, dose response, cytotoxicity control, ATP luminescence, cherry-pick, activator set 2 (AID 1053143); type: functional, cell-based
Prothrombin = Prothrombin (Bos taurus, UniProt P00735); test: thrombin inhibition, dose response, biochemical, fluorescence polarization, uHTS hits (AID 602369); type: functional
[5] = target: 26S proteasome non-ATPase regulatory subunit 14 (Homo sapiens, UniProt O00487); test: inhibition of proteasome subunit RPN11 – biochemical, fluorescence polarization, uHTS hits, confirmation (AID 602368); type: functional
26S proteasome non-ATPase regulatory subunit 14, sequence (O00487 whole entry): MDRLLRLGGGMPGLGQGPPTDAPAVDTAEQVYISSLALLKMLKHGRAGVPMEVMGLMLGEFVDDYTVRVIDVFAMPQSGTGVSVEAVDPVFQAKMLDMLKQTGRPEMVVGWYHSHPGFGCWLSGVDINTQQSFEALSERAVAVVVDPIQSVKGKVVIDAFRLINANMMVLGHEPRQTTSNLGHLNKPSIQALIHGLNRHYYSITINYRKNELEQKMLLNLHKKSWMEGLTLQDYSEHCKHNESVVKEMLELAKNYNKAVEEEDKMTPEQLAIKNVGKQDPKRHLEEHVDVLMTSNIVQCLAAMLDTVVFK

[6] = target: 72 kDa type IV collagenase (Homo sapiens, UniProt P08253); test: Dose Response validation of uHTS RPN11 inhibitor hits using a MMP-2 Fluorescence assay.; type: functional
72 kDa type IV collagenase, sequence (P08253 whole entry): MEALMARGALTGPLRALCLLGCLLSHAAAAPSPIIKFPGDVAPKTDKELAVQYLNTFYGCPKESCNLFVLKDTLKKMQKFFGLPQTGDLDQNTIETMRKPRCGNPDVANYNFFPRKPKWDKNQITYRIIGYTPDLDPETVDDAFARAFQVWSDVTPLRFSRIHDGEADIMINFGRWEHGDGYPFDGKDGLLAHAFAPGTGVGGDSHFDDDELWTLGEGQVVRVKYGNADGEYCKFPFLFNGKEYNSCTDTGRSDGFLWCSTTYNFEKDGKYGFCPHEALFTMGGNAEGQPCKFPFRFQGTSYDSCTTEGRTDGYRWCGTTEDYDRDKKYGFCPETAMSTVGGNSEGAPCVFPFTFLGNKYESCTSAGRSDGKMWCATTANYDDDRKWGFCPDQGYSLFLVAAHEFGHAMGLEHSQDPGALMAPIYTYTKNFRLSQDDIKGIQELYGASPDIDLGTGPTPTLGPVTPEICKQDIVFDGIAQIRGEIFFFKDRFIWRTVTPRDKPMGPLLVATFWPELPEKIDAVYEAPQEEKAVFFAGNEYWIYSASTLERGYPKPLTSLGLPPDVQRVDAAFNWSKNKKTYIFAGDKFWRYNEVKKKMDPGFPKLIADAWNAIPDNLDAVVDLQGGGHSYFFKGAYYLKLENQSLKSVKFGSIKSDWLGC

[7] = Luminescence Cell-Based Dose Response HTS to Identify Inhibitors of 5'UTR Stem-Loop Driven Prion Protein mRNA Translation in H4 Neuroglioblastoma Cells. [Related pubchem assays: 1827 (Project Summary), 1813 (Primary HTS)]; type: functional
[8] = inhibitors of SNCA 5'UTR-driven reporter translation, confirmation, H4 neuroglioma cells, luminescence (AID 1988); type: functional, cell-based
[9] = target: Nuclear receptor subfamily 0 group B member 1 (Homo sapiens, UniProt P51843); type: functional, cell-based;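 also: HEK293T cells transfected with SF-1 and DAX-1 plus StAR promoter luciferase reporter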
Nuclear receptor subfamily 0 group B member 1, sequence (P51843 whole entry): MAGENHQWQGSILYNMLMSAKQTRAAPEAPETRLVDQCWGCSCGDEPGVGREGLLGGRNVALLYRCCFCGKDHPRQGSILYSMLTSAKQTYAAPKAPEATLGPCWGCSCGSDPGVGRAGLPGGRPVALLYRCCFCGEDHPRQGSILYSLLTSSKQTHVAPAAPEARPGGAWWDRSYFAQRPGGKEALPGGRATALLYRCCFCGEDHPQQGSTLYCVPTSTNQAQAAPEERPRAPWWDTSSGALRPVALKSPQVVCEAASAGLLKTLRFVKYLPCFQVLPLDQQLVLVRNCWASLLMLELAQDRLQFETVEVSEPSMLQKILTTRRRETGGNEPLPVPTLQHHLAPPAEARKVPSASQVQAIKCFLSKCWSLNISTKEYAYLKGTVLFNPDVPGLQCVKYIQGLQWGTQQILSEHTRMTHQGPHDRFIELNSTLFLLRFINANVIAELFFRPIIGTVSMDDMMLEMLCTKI

cells = type: functional, cell-based
[10] = target: Fructose-bisphosphate aldolase (Mycobacterium tuberculosis, UniProt P9WQA3); test: Fluorescence-based biochemical high throughput dose response assay for inhibitors of the fructose-bisphosphate aldolase (FBA) of M. tuberculosis.; type: functional
Fructose-bisphosphate aldolase, sequence (P9WQA3 whole entry, the tested form may be a part): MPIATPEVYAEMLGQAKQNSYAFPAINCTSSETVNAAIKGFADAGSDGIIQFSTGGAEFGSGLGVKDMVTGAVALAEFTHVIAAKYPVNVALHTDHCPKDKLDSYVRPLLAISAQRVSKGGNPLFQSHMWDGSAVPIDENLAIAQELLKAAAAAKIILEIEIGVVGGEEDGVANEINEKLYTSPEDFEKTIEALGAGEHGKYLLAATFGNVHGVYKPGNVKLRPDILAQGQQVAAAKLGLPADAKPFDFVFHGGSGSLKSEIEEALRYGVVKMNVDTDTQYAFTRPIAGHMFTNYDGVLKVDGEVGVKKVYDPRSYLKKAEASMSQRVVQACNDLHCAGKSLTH

[11] = target: Photoreceptor-specific nuclear receptor (Homo sapiens, UniProt Q9Y5X4); type: functional, cell-based;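 also: CHO-S cells with Gal4-NCOR and VP16-NR2E3 two-hybrid luciferase reporter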
Photoreceptor-specific nuclear receptor, sequence (Q9Y5X4 whole entry, the tested form may be a part): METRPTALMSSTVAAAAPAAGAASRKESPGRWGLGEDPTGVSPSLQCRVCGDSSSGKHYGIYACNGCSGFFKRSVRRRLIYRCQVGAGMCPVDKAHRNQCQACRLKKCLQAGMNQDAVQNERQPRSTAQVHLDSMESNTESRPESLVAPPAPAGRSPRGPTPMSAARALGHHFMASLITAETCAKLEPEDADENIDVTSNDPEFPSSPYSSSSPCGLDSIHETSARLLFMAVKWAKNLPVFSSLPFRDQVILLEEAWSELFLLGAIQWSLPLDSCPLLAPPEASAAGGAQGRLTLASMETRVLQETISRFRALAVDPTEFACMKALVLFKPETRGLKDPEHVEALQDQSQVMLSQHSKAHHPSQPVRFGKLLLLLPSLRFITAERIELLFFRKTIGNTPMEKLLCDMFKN

[12] = target: ATP-dependent molecular chaperone HSP82 (Candida albicans (strain WO-1) (Yeast), UniProt C4YTQ8); test: loss of DOC-induced GRE-beta-galactosidase reporter signal, dose response, Hsp90 inhibitor project, S. cerevisiae, luminescence (AID 2400); type: functional, cell-based;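 also: beta-galactosidase luminescence from glucocorticoid response element reporter as proxy for Hsp90 function; inhibitor potency where signal loss means Hsp90 inhibition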
ATP-dependent molecular chaperone HSP82, sequence (C4YTQ8 whole entry): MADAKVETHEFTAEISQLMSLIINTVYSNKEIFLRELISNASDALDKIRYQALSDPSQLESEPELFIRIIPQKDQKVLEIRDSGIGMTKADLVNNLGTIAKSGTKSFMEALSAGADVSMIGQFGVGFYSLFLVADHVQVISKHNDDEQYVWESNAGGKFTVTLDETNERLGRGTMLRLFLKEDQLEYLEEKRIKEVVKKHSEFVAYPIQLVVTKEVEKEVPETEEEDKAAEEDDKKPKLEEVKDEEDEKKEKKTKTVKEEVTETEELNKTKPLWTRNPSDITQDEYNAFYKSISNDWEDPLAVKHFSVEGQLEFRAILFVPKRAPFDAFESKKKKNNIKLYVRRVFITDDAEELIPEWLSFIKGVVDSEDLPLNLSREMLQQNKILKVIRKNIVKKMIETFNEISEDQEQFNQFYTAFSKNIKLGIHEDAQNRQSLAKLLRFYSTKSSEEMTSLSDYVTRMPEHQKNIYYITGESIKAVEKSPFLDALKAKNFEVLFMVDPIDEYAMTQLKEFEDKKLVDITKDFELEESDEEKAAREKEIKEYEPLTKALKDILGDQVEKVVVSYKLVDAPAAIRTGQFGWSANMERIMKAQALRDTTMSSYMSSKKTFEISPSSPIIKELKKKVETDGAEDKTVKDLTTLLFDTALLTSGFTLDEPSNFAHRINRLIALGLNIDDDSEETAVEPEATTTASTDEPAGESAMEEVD

Nonstructural protein 1 = Nonstructural protein 1 (Influenza A virus, UniProt Q194T2); type: functional, Influenza A virus (A/California/07/2009(H1N1))
Nonstructural protein 1, sequence (Q194T2 whole entry): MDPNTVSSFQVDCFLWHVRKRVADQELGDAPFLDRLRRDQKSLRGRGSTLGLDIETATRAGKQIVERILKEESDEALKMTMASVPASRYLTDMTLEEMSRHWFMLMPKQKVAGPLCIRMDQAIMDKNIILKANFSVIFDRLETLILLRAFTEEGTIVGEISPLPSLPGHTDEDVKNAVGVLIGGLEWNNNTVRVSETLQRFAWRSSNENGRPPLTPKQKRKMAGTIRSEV

[13] = NIH-3T3 fibroblast cytotoxicity, dose response, cytotoxicity control, cell-based, fluorescence, Alamar Blue, secondary assay (AID 2327); type: functional;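 also: NIH-3T3 mouse fibroblasts cultured with fluconazole at 8 µg/mL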
[14] = target: T2, Serine/threonine-protein phosphatase (Candida dubliniensis (strain CD36 / CBS 7987 / NCPF 3949 / NRRLY-17841) (Yeast), UniProt B9W6M3); test: calcineurin pathway inhibitors in yeast reporter, dose response, S. cerevisiae, CDRE-lacZ, luminescence, secondary (AID 2388); type: functional, cell-based;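 also: yeast reporter cells carrying a calcineurin-responsive lacZ construct stimulated with calcium chloride; luminescent beta-galactosidase reporter signal in whole cells rather than isolated phosphatase activity; potency for inhibition where a drop in reporter signal means calcineurin blockade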
T2 sequence (B9W6M3 whole entry): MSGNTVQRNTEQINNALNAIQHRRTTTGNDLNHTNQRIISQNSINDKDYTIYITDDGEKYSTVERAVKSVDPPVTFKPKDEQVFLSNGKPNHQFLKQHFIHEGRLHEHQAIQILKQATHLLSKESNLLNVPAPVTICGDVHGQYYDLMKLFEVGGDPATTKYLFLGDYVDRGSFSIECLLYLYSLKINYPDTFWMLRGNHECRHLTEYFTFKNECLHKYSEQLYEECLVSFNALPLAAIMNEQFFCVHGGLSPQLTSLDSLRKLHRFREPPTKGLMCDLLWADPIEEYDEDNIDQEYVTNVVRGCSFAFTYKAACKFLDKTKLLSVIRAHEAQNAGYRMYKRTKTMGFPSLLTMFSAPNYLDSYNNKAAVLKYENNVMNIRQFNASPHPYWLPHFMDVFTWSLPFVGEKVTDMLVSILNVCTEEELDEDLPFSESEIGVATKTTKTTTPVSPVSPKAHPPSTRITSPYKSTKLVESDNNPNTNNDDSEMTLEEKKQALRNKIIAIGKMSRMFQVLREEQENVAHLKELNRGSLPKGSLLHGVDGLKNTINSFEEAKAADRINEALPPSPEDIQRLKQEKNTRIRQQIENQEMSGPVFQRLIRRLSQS

[15] = C. albicans growth with fluconazole, confirmation, fluorescence, retest (AID 2467); type: functional, cell-based

## COc1cc(/C=C2\CCCc3c2nc2ccccc2c3C(=O)O)cc(Cl)c1O
[1]
  IC50: 4.82 µM (active)
[2]
  IC50: 2.96 µM (active)

## CCOC(=O)c1ccc(/N=c2\sc(C(=O)OC)cc(=O)n2CCCN2CCOCC2)cc1
[3]
  CC50: > 40 µM (active)
Beta-galactosidase
  IC50: > 80 µM (inactive)

## Cc1ncsc1C(=O)Nc1nc2c(s1)CC(C)CC2 (stereo unspecified)
[4]
  AC50: > 52 µM (inactive)

## COc1cccc(NC2=Nc3cccc4cccc2c34)c1
[1]
  IC50: 27.7 µM (inactive)
Prothrombin
  IC50: 37.8 µM (active)
[5]
  IC50: 27.6 µM (active)
[2]
  IC50: 41.3 µM (inactive)
[6]
  IC50: > 100 µM (inactive)

## Cc1ccc(-c2cc(C(=O)N3CCCC3)no2)cc1
[7]
  EC50: 2.79 µM (active)
[8]
  EC50: 9.94 µM (inconclusive)
[9]
  IC50: > 67.5 µM (inactive)
cells
  IC50: > 67.5 µM (inactive)

## Cc1nc2c(cc1N)nc(C)n2Cc1ccccc1
[10]
  IC50: 653 nM (active)

## CCOC(=O)c1c(S(=O)(=O)Nc2ccc(CN3CCC(C)CC3)cc2)c(C)n(C)c1C
[9]
  IC50: > 67.5 µM (inactive)
cells
  IC50: > 67.5 µM (inactive)

## CCC(=O)NC(c1cccs1)c1cc([N+](=O)[O-])c2cccnc2c1O (stereo unspecified)
[11]
  IC50: 2.47 µM (active)
Prothrombin
  IC50: > 100 µM (inactive)
[12]
  EC50: 24 µM (active)
Nonstructural protein 1
  IC50: 6.66 µM (active)
[5]
  IC50: 40.3 µM (active)
[13]
  EC50: 33.6 µM (active)
[14]
  EC50: > 180 µM (inactive)
[6]
  IC50: 5.91 µM (active)
[15]
  EC50: 185 nM (active)
